These results are taken from patent publication US20050004038A1, “Bivalent inhibitors of Glutathione-S-Transferases” (priority 2003, published 2005).

Test [1] deals with T1, human glutathione S-transferase P1-1 (GSTP1-1) (Homo sapiens, UniProt P09211).
T1 construct: made in house; host or cells: E. coli
Briefly: CDNB assay of GST activity and inhibition, GST P1-1. As to conditions: for IC50: first value of the cell GSTP1-1/GSTA1-1, CDNB assay, 20 nM GST. It is filed as biochemical. As for the experimental part:
(§1) GST isozymes. […] The enzyme was incubated with 10 mM dithiothreitol to ensure complete reduction of cysteine residues, followed by extensive dialysis to remove the reducing agent. […] Plasmodium GST (pGST) was a gift from Dr. Katja Becker (Justus Liebig University of Giessen), and murine GSTP and GSTA were gifts from Dr. Dave Eaton (University of Washington). Except where otherwise stated (i.e. testing of pGST in Example 6.4.5 and testing of murine GSTs in Example 6.4.7), GST isozymes tested were from human.
(§2) GST assays. Assays of GST activity and inhibition were performed with chloro-2,4-dinitrobenzene (CDNB) as the electrophilic substrate. Except where otherwise stated, GST concentration was 20 nM. […] Rates were determined by measuring absorption at 340 nm (λmax of glutathione-dinitrobenzene) for 1 minute on a Beckman DU 7400 spectrophotometer. For IC50 determinations, assays were performed at inhibitor concentrations ranging over at least […] (from 100-fold above the IC50 to 100-fold below). Data were fit to a sigmoidal dose-response function using GraphPad Prism to determine the 50% inhibitory concentration.

Test [2] addresses T2, human glutathione S-transferase A1-1 (GSTA1-1) (Homo sapiens, UniProt P08263).
T2 construct: made in house; host or cells: E. coli
T2 sequence (P08263 1-222): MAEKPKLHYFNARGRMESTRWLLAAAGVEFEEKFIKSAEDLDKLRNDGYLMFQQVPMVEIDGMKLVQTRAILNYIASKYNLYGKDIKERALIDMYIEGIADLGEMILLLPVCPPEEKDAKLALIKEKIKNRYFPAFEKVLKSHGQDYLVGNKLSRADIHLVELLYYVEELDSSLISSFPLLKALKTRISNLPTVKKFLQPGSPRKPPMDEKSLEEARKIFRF
Briefly: CDNB assay of GST activity and inhibition, GST A1-1. It is filed as biochemical. The note with it: second value of the cell GSTP1-1/GSTA1-1, 20 nM GST. As for the experimental part:
as §1, §2

The next test concerns the target T3, Plasmodium GST (pGST) (Plasmodium falciparum, UniProt Q8ILQ7).
T3 construct: gift from Dr. Katja Becker (Justus Liebig University of Giessen)
T3 sequence (Q8ILQ7 1-211): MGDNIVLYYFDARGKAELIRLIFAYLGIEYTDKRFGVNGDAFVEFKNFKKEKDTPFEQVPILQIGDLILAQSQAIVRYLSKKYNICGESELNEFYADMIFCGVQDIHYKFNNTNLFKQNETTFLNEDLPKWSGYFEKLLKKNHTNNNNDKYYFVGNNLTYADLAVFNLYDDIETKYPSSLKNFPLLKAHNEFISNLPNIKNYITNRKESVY
Briefly: CDNB assay, Plasmodium GST. It is filed as biochemical. How it is done: as §1, §2
The IC50 values for pGST were determined for the bivalent compounds from Tables III and IV using the CDNB assay.

For the next test, the target named is T4, murine GSTP (Mus musculus, UniProt P19157).
T4 construct: gift from Dr. Dave Eaton (University of Washington)
Briefly: CDNB assay, murine GSTP. It is filed as biochemical. How it is done: as §1, §2

In test [3] the test system is chloroquine resistant Plasmodium falciparum strain Dd2. The test is described as follows: Parasite growth inhibition, ring stages, 48 hours. It is filed as cell-based. As to conditions: single dose, strain Dd2, 48 hours. As for the experimental part: (§3) A single dose of compound IVg^ was added to ring stages of chloroquine resistant Plasmodium falciparum strain Dd2 and incubated for 48 hours. […] An isobologram analysis was performed in two different chloroquine resistant parasites comparing IVg^ with chloroquine (AN143 with a PNG/South America genotype and INDO21 with the Indonesia genotype).

The subject of test [4] is chloroquine resistant parasites AN143 and INDO21. The test is described as follows: Isobologram analysis with chloroquine. It is filed as cell-based, Plasmodium falciparum. How it is done: as §3
Test [5] has as its system human kidney 293 fibroblasts transfected with the IRES vector (no GST P1-1). Briefly: Cell killing by hypericin photodynamic treatment, IRES vector control cells. It is filed as cell-based. How it is done: (§4) Cells used in the assay were human kidney 293 fibroblasts transfected with the IRES vector plus and minus the coding region for human GST P1-1. Cells were cultured in DMEM supplemented with 10% FBS and 1% penicillin-streptomycin and maintained at 37° C. and 5% CO2.
(§5) Once the cells reached 80% confluency, the original media was removed and replaced with either (a) fresh media alone; (b) fresh media containing 1 uM hypericin (a porphyrin analogue employed in photodynamic cancer therapy), (c) the desired concentration of GST inhibitor IVg^, and (d) 1 μM hypericin plus the inhibitor 1 μM IVg^. The cells were incubated for a further 24 hours, in the dark, to allow the hypericin to be incorporated. The media from each plate was then removed and placed into a corresponding 15 ml centrifuge tube. This media is saved to monitor the “floater” cells that may have sloughed off during manipulations and treatment. The attached cells were washed two times with 1×PBS and fresh media is added back to the plates. The plates which were incubated overnight in the presence of hypericin were overlayed with DMEM without the phenol red indicator dye or 1×PBS supplemented with 10% FBS. […]
(§6) Following light treatment, cells were trypsinized, removed to their corresponding 15 ml tubes and maintained on ice until analyzed via flow cytometry.

The subject of test [6] is human kidney 293 fibroblasts overexpressing human GST P1-1. The test is described as follows: Cell killing by hypericin photodynamic treatment, GST P1-1 overexpressing cells. It is filed as cell-based. The note with it: GSTP cells. As for the experimental part:
as §4, §5, §6

Test [7] concerns human kidney 293 fibroblasts. The test is described as follows: IC50 of the bivalent inhibitor alone in the cell line. It is filed as cell-based. The note with it: +/−0.2 SD, read-out: IC50 of inhibitor for the cells. How it is done: as §4
Once the cells reached 80% confluency, the original media was removed and replaced with either (a) fresh media alone; (b) fresh media containing 1 uM hypericin (a porphyrin analogue employed in photodynamic cancer therapy), (c) the desired concentration of GST inhibitor IVg^, and (d) 1 μM hypericin plus the inhibitor 1 μM IVg^. The cells were incubated for a further 24 hours, in the dark, to allow the hypericin to be incorporated. The media from each plate was then removed and placed into a corresponding 15 ml centrifuge tube. This media is saved to monitor the “floater” cells that may have sloughed off during manipulations and treatment. The attached cells were washed two times with 1×PBS and fresh media is added back to the plates. The plates which were incubated overnight in the presence of hypericin were overlayed with DMEM without the phenol red indicator dye or 1×PBS supplemented with 10% FBS.
as §6

A further test deals with T5, GSTA1-1 (Homo sapiens, UniProt P08263).
T5 construct: made in house; host or cells: E. coli
T5 sequence (P08263 1-222): T2 sequence (P08263 1-222)
Briefly: GSH conjugation assay, absorbance changes at 270 nm, GSTA1-1. It is filed as biochemical. As to conditions: absorbance at 270 nm. An excerpt:
(§7) Since EA is known to be enzymatically conjugated to GSH by GSTs, these bivalent inhibitors might be predicted to be potential substrates for GSTA1-1 or GSTP1-1, such that they would also be catalytically conjugated with GSH.

Another test addresses T6, GSTP1-1 (Homo sapiens, UniProt P09211).
T6 construct: made in house; host or cells: E. coli
Briefly: GSH conjugation assay, absorbance changes at 270 nm, GSTP1-1. It is filed as biochemical. As to conditions: absorbance at 270 nm.
From the text: as §7

In test [8] the target is T2, human glutathione S-transferase A1-1 (GSTA1-1). The note with it: from the prior art (Ploemen et al.); cited from earlier work.
Setting [9] is: CDNB assay, read-out: IC50 pGST.
Where [10] appears, read: 1 μM inhibitor + 1 μM hypericin + 590 nm light.
Where [11] appears, read: 1 uM hypericin + 590 nm light, no inhibitor.

Structures are written as SMILES. Where two headings read alike, the source gives them in different places.

T1 sequence (P09211 2-210 limits assumed): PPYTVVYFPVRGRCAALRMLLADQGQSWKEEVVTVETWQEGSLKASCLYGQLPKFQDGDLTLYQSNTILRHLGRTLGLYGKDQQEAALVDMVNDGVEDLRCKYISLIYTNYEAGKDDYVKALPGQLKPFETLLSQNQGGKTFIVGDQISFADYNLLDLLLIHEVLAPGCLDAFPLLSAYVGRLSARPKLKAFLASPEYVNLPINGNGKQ
T4 sequence (P19157 2-210 limits assumed): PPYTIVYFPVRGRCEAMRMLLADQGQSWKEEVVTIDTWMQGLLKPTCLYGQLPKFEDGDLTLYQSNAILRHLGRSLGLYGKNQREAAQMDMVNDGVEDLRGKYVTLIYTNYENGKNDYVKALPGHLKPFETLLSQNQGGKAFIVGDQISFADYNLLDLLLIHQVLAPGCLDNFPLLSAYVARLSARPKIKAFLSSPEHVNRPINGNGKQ
T6 sequence (P09211 2-210 limits assumed): as the sequence (P09211 2-210 limits assumed) above

For the compound `C=C(CC)C(=O)c1ccc(OCC(=O)NCCCC(=O)NCCCC(=O)NCCCC(=O)NCc2cc(CNC(=O)CCCNC(=O)CCCNC(=O)CCCNC(=O)COc3ccc(C(=O)C(=C)CC)c(Cl)c3Cl)cc(C(N)=O)c2)c(Cl)c1Cl` [IVi], the results for the IC50 (in test [1]; in test [2]; on Plasmodium GST (pGST)) were 0.142 µM, 0.0965 µM and ~5.5 µM, respectively.

In the case of `C=C(CC)C(=O)c1ccc(OCC(=O)NCCCCCC(=O)NCc2cccc(CNC(=O)CCCCCNC(=O)COc3ccc(C(=O)C(=C)CC)c(Cl)c3Cl)c2)c(Cl)c1Cl` [IVg^], the IC50 in test [1] was 0.027 µM; in test [2], 0.064 µM; on Plasmodium GST (pGST) (setting [9]), ~1.5 µM; at murine GSTP it was 0.018 µM; in [7], 1.13 µM. The compound also yielded an EC50 in test [3] of 0.412 µM. Moreover, in [4], the synergy with chloroquine result was “No evidence of synergy”. The “Mean % Cell Death” value in [5] (setting [10]) worked out at 20.27%; in test [6] (setting [10]), 22.53%.

`C=C(CC)C(=O)c1ccc(OCC(=O)NCCCCCC(=O)NCc2cc(CNC(=O)CCCCCNC(=O)COc3ccc(C(=O)C(=C)CC)c(Cl)c3Cl)cc(C(N)=O)c2)c(Cl)c1Cl` [IVg]: the IC50 in test [1] is 0.0461 µM; in [2] it was 0.0402 µM; on Plasmodium GST (pGST) (setting [9]), ~3.3 µM. For the same compound, the “GSH conjugation by GSTA1-1” value on GSTA1-1 is “no GSH conjugation”. The “GSH conjugation by GSTP1-1” value on GSTP1-1 is “no GSH conjugation”.

In the case of `C=C(CC)C(=O)c1ccc(OCC(=O)NCc2cccc(CNC(=O)COc3ccc(C(=O)C(=C)CC)c(Cl)c3Cl)c2)c(Cl)c1Cl` [IVc^], the concentration for half-maximal inhibition (IC50) in test [1] turned out to be 0.995 µM; in test [2] it was 0.025 µM; on murine GSTP it was 0.99 µM.

For the compound `NC(CCC(=O)NC(CSc1ccc(C(=O)OCCOCCOCCOCCOC(=O)c2ccc(SCC(NC(=O)CCC(N)C(=O)O)C(=O)NCC(=O)O)c([N+](=O)[O-])c2)cc1[N+](=O)[O-])C(=O)NCC(=O)O)C(=O)O` (stereo not shown) [IIa], the IC50 in test [1] came to 4.5 µM; in test [2], 29 µM.

Take `NC(CCC(=O)NC(CSCCCCCCCCCCCCOC(=O)CCCCCCCSCC(NC(=O)CCC(N)C(=O)O)C(=O)NCC(=O)O)C(=O)NCC(=O)O)C(=O)O` (stereo not shown) [Ie]: the IC50 in [1] was 0.19 µM; in test [2], 0.14 µM.

As for `CCOC(=O)c1ccc(SCC(NC(=O)CCC(N)C(=O)O)C(=O)NCC(=O)O)c([N+](=O)[O-])c1` (stereo not shown) [IId*, reference compound], the IC50 was 21 µM in test [1] and 30 µM in test [2]. In test [1] (in words), the “isozyme specificity GSTP1-1 versus GSTA1-1” value is listed as “no substantial isozyme specificity”.

Turning to `C=C(CC)C(=O)c1ccc(OCC(=O)NCC(=O)NCc2cc(CNC(=O)CNC(=O)COc3ccc(C(=O)C(=C)CC)c(Cl)c3Cl)cc(C(N)=O)c2)c(Cl)c1Cl` [IVd], the IC50 amounted to 0.634 µM in test [1] and 0.023 µM in [2].

For the compound `COC(=O)CCCCCCCSCC(NC(=O)CCC(N)C(=O)O)C(=O)NCC(=O)O` (stereo not shown) [If*, reference compound], the IC50 in test [1] and in test [2] was 3.8 µM in each case.

For the compound `Cc1cc(O)c2c(=O)c3c(O)cc(O)c4c5c(O)cc(O)c6c(=O)c7c(O)cc(C)c8c1c2c(c34)c(c78)c65` [hypericin, reference compound], the results for the “Mean % Cell Death” value in test [5] (setting [11]) and in [6] (setting [11]) were 24.63% and 11.27%, respectively.

In the case of `C=C(CC)C(=O)c1ccc(OCC(=O)NCCCC(=O)NCc2cc(CNC(=O)CCCNC(=O)COc3ccc(C(=O)C(=C)CC)c(Cl)c3Cl)cc(C(N)=O)c2)c(Cl)c1Cl` [IVf], the IC50 in test [1] worked out at 0.589 µM; in [2], 0.014 µM.

Regarding `CCC(CSCC(NC(=O)CCC(N)C(=O)O)C(=O)NCC(=O)O)C(=O)c1ccc(OCC(=O)NCCCC(=O)NCc2cc(CNC(=O)CCCNC(=O)COc3ccc(C(=O)C(CC)CSCC(NC(=O)CCC(N)C(=O)O)C(=O)NCC(=O)O)c(Cl)c3Cl)cc(C(N)=O)c2)c(Cl)c1Cl` (stereo not shown) [IIe], the values for the IC50 in test [1] and in [2] were 0.353 µM and 0.0038 µM, respectively. Also, the “fold greater affinity for GSTP1-1 (lower IC50) than the ligand domain alone” value in test [1] (versus corresponding ligand domain (GS-NB/IId, IIg, IIId, IVk)) was determined as 30 fold.

Consider `C=C(CC)C(=O)c1ccc(OCC(=O)O)c(Cl)c1Cl` [IVk*, ethacrynic acid, reference compound], for which, on GSTA1-1, the “GSH conjugation by GSTA1-1” value is on record as “readily conjugated to GSH”. The IC50 in test [8] was 5 µM.

As usually defined, the IC50 is the concentration that gives 50% inhibition. In general, EC50 refers to the concentration needed to bring the measured effect to its halfway point. Read a low EC50 as an effect from little substance.
